Test results from patent EP4772514A1, “MACROCYCLIC COMPOUNDS, PREPARATION METHOD THEREFOR, AND USE THEREOF” (Genfleet Therapeutics (Shanghai) Inc., priority 2023, dated 2025).

System: p-ERK
Test: Cell p-ERK assay (HTRF, Advance ERK phospho-T202/Y204 kit) in NCI-H441 cells
Format: cell-based
Conditions: Homo sapiens, NCI-H441, 3 h, NCI-H441, human non-small cell lung cancer cell strain, KRAS G12V mutation; 3 h compound incubation
Method: AsPC-1 cells were purchased from ATCC, Cat. No. CRL-1682; NCI-H441 cells were purchased from ATCC, Cat. No. HTB-174; RPMI-1640 medium was purchased from Gibco, Cat. No. 11875-093; FBS was purchased from Gibco, Cat. No. 10099-141C; penicillin/streptomycin double-antibiotic solution (PS) was purchased from Gibco, Cat. No. 15140-122; trypsin (containing EDTA) was purchased from Gibco, Cat. No. 25200-072; DMSO was purchased from VWRAMRESCO, Cat. No. 0231-500ML; 96-well cell culture plates were purchased from Corning, Cat. No. 3599; white-bottomed, opaque 96-well plates were purchased from Cisbio, Cat. No. 66PL96025; Advance ERK phospho-T202/Y204 kit was purchased from Cisbio, Cat. No. 64AERPEH; cell counter was purchased from CHEMOMETEC, model: NC-200; microplate reader was purchased from PerkinElmer, model: EnVision.
AsPC-1, a human pancreatic cancer cell strain endogenously containing a KRAS^G12D mutation, was cultured in a complete medium containing RPMI-1640 + 10% FBS + 1% PS. NCI-H441, a human non-small cell lung cancer cell strain endogenously containing a KRAS^G12V mutation, was cultured in a complete medium containing RPMI-1640 + 10% FBS + 1% PS.
The cells were digested with trypsin (containing EDTA), collected in their corresponding complete media, and counted. The density of the cell suspensions was adjusted with their corresponding complete media, and AsPC-1 cells (10000 cells/well) or NCI-H441 cells (20000 cells/well) were seeded into a 96-well cell culture plate, with the volume of the medium in each well being 80 µL. The cell culture plate was incubated in an incubator at 37 °C with 5% CO2 overnight. A series of 3.16-fold gradient dilutions of a 1000× compound stock solution were prepared with DMSO, and then diluted 200-fold with the complete medium described above to give 5× compound stock solutions. On the day after cell seeding, 20 µL of the 5× compound stock solution was added to each cell culture well. As a result, the final concentration of the compound in the cell culture well became 1×, and the DMSO content in the well was 0.1%. In addition to the compound-treated wells described above, cell-containing DMSO control wells were also set. A complete medium containing 0.5% DMSO was added at 20 µL/well. After the mixture was well mixed, the culture plate was incubated in the incubator at 37 °C with 5% CO2 for another 3 h. The medium was then removed from the culture wells, and 50 µL of cell lysis buffer (from Advance ERK phospho-T202/Y204 kit) was added to each well. The mixture was well mixed, incubated for 30 min, and then transferred to a white-bottomed, opaque 96-well assay plate at 16 µL/well, and separately, 16 µL of cell lysis buffer was added to additional wells (serving as blank wells) in the assay plate. After the transfer was completed, 4 µL of p-ERK HTRF antibody mixture (from Advance ERK phospho-T202/Y204 kit) was added to each well of the assay plate, followed by a 4-hour incubation. The HTRF signal values (RLU) were then measured using a microplate reader, and the inhibition rate of the compound against p-ERK levels was calculated as follows: IR(%) = (RLUDMSO - RLUcompound)/(RLUDMSO - RLUblank) × 100%, where RLUDMSO is the average HTRF signal value from the DMSO control well samples, RLU is the average HTRF signal value from the blank well samples, and RLUcompound is the HTRF signal value from the compound-treated well samples. Using an XLfit software, the IR(%) values were plotted against the logarithm of the compound concentrations, and the dose-response curves were fitted using the four-parameter method to calculate the IC50 values.

Row | Compound | IC50
1 | CCn1nc2c(c1-c1cc(C#CCN3CCS(=O)(=O)CC3)cnc1[C@H](C)OC)CC(C)(C)COC(=O)[C@@H]1CCCN(N1)C(=O)[C@@H](NC(=O)[C@H](C(C)C)N(C)c1ccncc1)Cc1nc(cs1)/C=C/2 (atropisomer, axis not shown; (Ra)) [Compound Z122, (2S)-N-((4^2Z,8^3S,2E,6S)-(Ra)-1^5-(5-(3-(1,1-dioxidothiomorpholino)prop-1-yn-1-yl)-2-((S)-1-methoxyethyl)pyridin-3-yl)-1^1-ethyl-12,12-dimethyl-7,9-dioxo-8^1,8^2,8^3,8^4,8^5,8^6-hexahydro-1^1H-10-oxa-4(4,2)-thiazola-8(1,3)-pyridazina-1(3,4)-pyrazolocyclotridec-2-en-6-yl)-3-methyl-2-(methyl(pyridin-4-yl)amino)butanamide] | 0.181 µM
2 | CO[C@@H](C)c1ncc(C#CCN2CCS(=O)(=O)CC2)cc1-c1c2c(nn1C(C)C)/C=C/c1csc(n1)C[C@H](NC(=O)[C@H](C(C)C)N(C)c1ccc(C)cc1)C(=O)N1CCC[C@H](N1)C(=O)OCC(C)(C)C2 (atropisomer, axis not shown; (Ra)) [Compound Z61, (2S)-N-((4^2Z,8^3S,2E,6S)-1^5-(Ra)-(5-(3-(1,1-dioxidothiomorpholino)prop-1-yn-1-yl)-2-((S)-1-methoxyethyl)pyridin-3-yl)-1^1-isopropyl-12,12-dimethyl-7,9-dioxo-8^1,8^2,8^3,8^4,8^5,8^6-hexahydro-1^1H-10-oxa-4(4,2)-thiazola-8(1,3)-pyridazina-1(3,4)-pyrazolocyclotridec-2-en-6-yl)-3-methyl-2-(methyl(p-tolyl)amino)butanamide] | 0.0699 µM
3 | CCn1nc2c(c1-c1cc(C#CCN3CCS(=O)(=O)CC3)cnc1[C@H](C)OC)CC(C)(C)COC(=O)[C@@H]1CCCN(N1)C(=O)[C@@H](NC(=O)[C@H](C(C)C)N(C)C1CCCC1)Cc1nc(cs1)/C=C/2 (atropisomer, axis not shown; (Ra)) [Compound Z58, (2S)-2-(cyclopentyl(methyl)amino)-N-((4^2Z,8^3S,2E,6S)-(Ra)-1^5-(5-(3-(1,1-dioxidothiomorpholine)prop-1-yn-1-yl)-2-((S)-1-methoxyethyl)pyridin-3-yl)-1^1-ethyl-12,12-dimethyl-7,9-dioxo-8^1,8^2,8^3,8^4,8^5,8^6-hexahydro-1^1H-10-oxa-4(4,2)-thiazola-8(1,3)-pyridazina-1(3,4)-pyrazolecyclotridec-2-en-6-yl)-3-methylbutanamide] | 0.0557 µM
4 | CO[C@@H](C)c1ncc(C#CCN2CCS(=O)(=O)CC2)cc1-c1c2c(nn1C(C)C)/C=C/c1csc(n1)C[C@H](NC(=O)[C@H](C(C)C)N(C)c1cccc(C)c1)C(=O)N1CCC[C@H](N1)C(=O)OCC(C)(C)C2 (atropisomer, axis not shown; (Ra)) [Compound Z59, (2S)-N-((4^2Z,8^3S,2E,6S)-1^5-(Ra)-(5-(3-(1,1-dioxidothiomorpholino)prop-1-yn-1-y1)-2-((S)-1-methoxyethyl)pyridin-3-yl)-1^1-isopropyl-12,12-dimethyl-7,9-dioxo-8^1,8^2,8^3,8^4,8^5,8^6-hexahydro-1^1H-10-oxa-4(4,2)-thiazola-8(1,3)-pyridazina-1(3,4)-pyrazolocyclotridec-2-en-6-yl)-3-methyl-2-(methyl(m-tolyl)amino)butanamide] | 0.0492 µM
5 | CO[C@@H](C)c1ncc(C#CCN2CCS(=O)(=O)CC2)cc1-c1c2c(nn1C(C)C)/C=C/c1csc(n1)C[C@H](NC(=O)[C@H](C(C)C)N(C)c1ccc3ccccc3c1)C(=O)N1CCC[C@H](N1)C(=O)OCC(C)(C)C2 (atropisomer, axis not shown; (Ra)) [Compound Z60] | 0.261 µM
6 | COC[C@H]1CCN1C(=O)N[C@H]1Cc2nc(cs2)/C=C/c2nn(C(C)C)c(-c3cc(C#CCN4CCS(=O)(=O)CC4)cnc3[C@H](C)OC)c2CC(C)(C)COC(=O)[C@@H]2CCCN(N2)C1=O [Compound Z41, (2R)-N-((4^2Z,8^3S,2E,6S)-1^5-(5-(3-(1,1-dioxidothiomorpholino)prop-1-yn-1-yl)-2-((S)-1-methoxyethyl)pyridin-3-yl)-1^1-isopropyl-12,12-dimethyl-7,9-dioxo-8^1,8^2,8^3,8^4,8^5,,8^6-hexahydro-1^1H-10-oxa-4(4,2)-thiazola-8(1,3)-pyridazina-1(3,4)-pyrrolacyclotridecaphan-2-en-6-yl)-2-(methoxymethyl)azetidine-1-carboxamide] | 0.356 µM
7 | CCn1nc2c(c1-c1cc(C#CCN3CCS(=O)(=O)CC3)cnc1[C@H](C)OC)CC(C)(C)COC(=O)[C@@H]1CCCN(N1)C(=O)[C@@H](NC(=O)[C@H](C(C)C)N(C)c1cccnc1)Cc1nc(cs1)/C=C/2 (atropisomer, axis not shown; (Ra)) [Compound Z123, (2S)-N-((4^2Z,8^3S,2E,6S)-(Ra)-1^5-(5-(3-(1,1-dioxidothiomorpholino)prop-1-yn-1-yl)-2-((S)-1-methoxyethyl)pyridin-3-yl)-1^1-ethyl-12,12-dimethyl-7,9-dioxo-8^1,8^2,8^3,8^4,8^5,8^6-hexahydro-1^1H-10-oxa-4(4,2)-thiazola-8(1,3)-pyridazina-1(3,4)-pyrazolocyclotridec-2-en-6-yl)-3-methyl-2-(methyl(pyridin-3-yl)amino)butanamide] | 0.00463 µM
8 | CO[C@@H](C)c1ncc(C#CCN2CCS(=O)(=O)CC2)cc1-c1c2c(nn1C(C)C)/C=C/c1csc(n1)C[C@H](NC(=O)[C@H](C(C)C)N(C)C(=O)Cc1cccc3ccsc13)C(=O)N1CCC[C@H](N1)C(=O)OCC(C)(C)C2 (single isomer, unassigned) [Compound Z120] | 0.513 µM
9 | CCn1nc2c(c1-c1cc(C#CCN3CCS(=O)(=O)CC3)cnc1[C@H](C)OC)CC(C)(C)COC(=O)[C@@H]1CCCN(N1)C(=O)[C@@H](NC(=O)[C@@H](Cc1ccccc1)C(C)C)Cc1nc(cs1)/C=C/2 (atropisomer, axis not shown; (Ra)) [Compound Z127, (2S)-2-benzyl-N-((4^2Z,8^3S,2E,6S)-(Ra)-1^5-(5-(3-(1,1-dioxidothiomorpholino)prop-1-yn-1-yl)-2-((S)-1-methoxyethyl)pyridin-3-yl)-1^1-ethyl-12,12-dimethyl-7,9-dioxo-8^1,8^2,8^3,8^4,8^5,8^6-hexahydro-1^1H-10-oxa-4(4,2)-thiazola-8(1,3)-pyridazina-1(3,4)-pyrrolacyclotridecaphan-2-en-6-yl)-3-methylbutanamide] | 0.104 µM
10 | CCn1nc2c(c1-c1cc(C#CCN3CCS(=O)(=O)CC3)cnc1[C@H](C)OC)CC(C)(C)COC(=O)[C@@H]1CCCN(N1)C(=O)[C@@H](NC(=O)[C@H](C(C)C)N(C)c1ccc(F)cc1)Cc1nc(cs1)/C=C/2 (atropisomer, axis not shown; (Ra)) [Compound Z124, (2S)-N-((4^2Z,8^3S,2E,6S)-(Ra)-1^5-(5-(3-(1,1-dioxidomorpholinyl)prop-1-yn-1-yl)-2-((S)-1-methoxyethyl)pyridin-3-yl)-1^1-ethyl-12,12-dimethyl-7,9-dioxo-8^1,8^2,8^4,8^5,8^6-hexahydro-1^1H-10-oxa-4(4,2)-thiazola-8(1,3)-pyridazina-1(3,4)-pyrrolacyclotridecaphan-2-en-6-yl)-2-[(4-fluorophenyl)(methyl)amino]-3-methylbutanamide] | 0.00205 µM
